Test results from paper PMC6346239 (ChemistryOpen, 2019).
Read-outs that look alike come from different tables or passages of the source.

Columns and labels:
hAT1R [1] = target: T1, hAT1R (Homo sapiens, UniProt P30556); format: binding; settings: read-out: % Inhibition of hAT1R at 10 μM
T1 sequence (P30556 1-359): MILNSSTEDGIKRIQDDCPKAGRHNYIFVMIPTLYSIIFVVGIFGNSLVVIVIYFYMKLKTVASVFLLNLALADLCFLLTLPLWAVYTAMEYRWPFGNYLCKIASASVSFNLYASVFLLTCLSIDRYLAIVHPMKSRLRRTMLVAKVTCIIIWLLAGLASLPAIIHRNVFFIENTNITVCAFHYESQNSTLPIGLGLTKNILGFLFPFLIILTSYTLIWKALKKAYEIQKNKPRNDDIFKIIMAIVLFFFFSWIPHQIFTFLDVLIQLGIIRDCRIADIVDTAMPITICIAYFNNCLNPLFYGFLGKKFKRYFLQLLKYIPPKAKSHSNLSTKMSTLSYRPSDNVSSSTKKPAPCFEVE

hAT2R [2] = target: T2, hAT2R (Homo sapiens, UniProt P50052); format: binding
T2 sequence (P50052 1-363): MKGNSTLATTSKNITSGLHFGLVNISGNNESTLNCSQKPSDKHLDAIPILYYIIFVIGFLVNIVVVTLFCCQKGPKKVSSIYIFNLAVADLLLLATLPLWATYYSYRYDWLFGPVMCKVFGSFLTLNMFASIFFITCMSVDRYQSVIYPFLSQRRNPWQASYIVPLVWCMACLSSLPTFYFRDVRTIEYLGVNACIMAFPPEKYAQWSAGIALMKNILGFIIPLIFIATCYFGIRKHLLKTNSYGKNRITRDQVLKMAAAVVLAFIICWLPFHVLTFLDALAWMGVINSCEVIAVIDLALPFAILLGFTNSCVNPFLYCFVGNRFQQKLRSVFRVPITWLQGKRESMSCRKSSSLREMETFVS

hAT2R [3] = target: T2, hAT2R; experiment: Assay 2: whole cell competition binding assay, HEK293 cells expressing AT2R
hAT1R [4] = target: T1, hAT1R; experiment: Assay 2: whole cell competition binding assay, HEK293 cells expressing AT1R

| SMILES | inhibition at 10 µM (hAT1R [1]) [%] | Ki (hAT2R [2]) [nM] | also measured |
| --- | --- | --- | --- |
| CCCCOC(=O)NS(=O)(=O)c1sc(CC(C)C)cc1-c1ccc(OC(F)(F)F)c(Cn2ccnc2)c1 [Compound 47] | 1.8 | – | – |
| CCCCOC(=O)NS(=O)(=O)c1sc(CC(C)C)cc1-c1cccc2c1CN(C(C)=O)C2 [Compound 83] | 15 | > 1500 | IC50 (hAT2R [2]): > 3000 nM |
| CCCCOC(=O)NS(=O)(=O)c1sc(CC(C)C)cc1-c1ccc2c(c1)CN(C(C)=O)C2 [Compound 85] | 7.5 | 360 | – |
| CCCCOC(=O)NS(=O)(=O)c1sc(CC(C)C)cc1-c1ccc2c(c1)CCN(C(C)=O)C2 [Compound 86, Butyl ((3‐(2‐acetyl‐1,2,3,4‐tetrahydroisoquinolin‐6‐yl)‐5‐isobutylthiophen‐2‐yl)sulfonyl)carbamate] | 34 | 56 | improvement of hAT2R affinity compared to C38 (hAT2R [2]; versus C38): 5 fold; improvement of hAT2R affinity compared to amides C93 and C97 (hAT2R [2]; versus C93 and C97): 2 fold; IC50 (hAT2R [3]): 818 nM; IC50 (hAT1R [4]): > 10000 nM |

Further lines, with some results ahead:

| inhibition at 10 µM (hAT1R [1]) [%] | Ki (hAT2R [2]) [nM] | SMILES | also measured |
| --- | --- | --- | --- |
| 45 | 270 | CCCCOC(=O)NS(=O)(=O)c1sc(CC(C)C)cc1-c1ccc2c(c1)CN(C(C)=O)CC2 [Compound 87] | – |
| 7.7 | 870 | CCOC(=O)NS(=O)(=O)c1sc(CC(C)C)cc1-c1ccc2c(c1)CN(C(C)=O)C2 [Compound 88] | – |
| 26 | 1300 | CCOC(=O)NS(=O)(=O)c1sc(CC(C)C)cc1-c1ccc2c(c1)CN(C(=O)OCC)C2 [Compound 89] | drop in hAT2R affinity compared to compound 86 (hAT2R [2]; versus 86): 20 fold; decrease in hAT2R affinity compared to methyl carbamate 92 (hAT2R [2]; versus 92): ~5 fold |
| 1.5 | 1300 | CCOC(=O)NS(=O)(=O)c1sc(CC(C)C)cc1-c1ccc2c(c1)CN(C)C(=O)C2 [Compound 94] | – |
